# Experimental data: US11932607B1, “4-(2,4,5-tris(4-chlorophenyl)-1H-imidazol-1-yl)benzoic acid as an antimicrobial compound” (KING FAISAL UNIVERSITY, priority 2023, dated 2024)
# What was measured:
# Assay type in all cases: cell-based
# Aspergillus flavus = test: Agar plate disc-diffusion, antifungal activity (inhibition zone); conditions: fungal, DMSO control zone subtracted
# Description: (§1) The agar plate disc-diffusion method was applied. […] The discs were then placed onto the surface of agar plates (nutrient agar for bacteria and Sabouraud's dextrose agar for fungi) seeded with the test organism. Each plate contained 15 mL of the agar medium, previously seeded with 0.2 mL of the broth culture of each organism pregrown for 18 hours. The plates were incubated at 37° C. for 48 hours, and 72 hours for fungi. The inhibition zones was measured in mm. Discs impregnated with DMSO were used as a control, and its inhibition zone was subtracted from the tested compound actual inhibition zone.
# [1] = tested on: Chrysosporium keratinophilum; test: as above; conditions: fungal, DMSO control zone subtracted
# Description: as §1
# Escherichia coli = test: Agar plate disc-diffusion, antibacterial activity (inhibition zone); conditions: Gram negative, DMSO control zone subtracted
# Description: as §1
# Pseudomonas aeruginosa = test: as above; conditions: Gram negative, DMSO control zone subtracted
# Description: as §1
# Staphylococcus aureus = test: as above; conditions: Gram positive, DMSO control zone subtracted
# Description: as §1
# Bacillus cereus = test: as above; conditions: Gram positive, DMSO control zone subtracted
# Description: as §1
# [2] = A = concentration of comp. = 10,000 μL
# [3] = B = concentration of comp. = 30,000 μL
# [4] = C = concentration of comp. = 50,000 μL
compound,measurement,setting,value
"O=C(O)c1ccc(-n2c(-c3ccc(Cl)cc3)nc(-c3ccc(Cl)cc3)c2-c2ccc(Cl)cc2)cc1 [V, 4-(2,4,5-tris(4-chlorophenyl)-1H-imidazol-1-yl)benzoic acid]","inhibition zone, Aspergillus flavus, A",Aspergillus flavus; [2],21 mm
same,"inhibition zone, Aspergillus flavus, B",Aspergillus flavus; [3],24 mm
same,"inhibition zone, Aspergillus flavus, C",Aspergillus flavus; [4],35 mm
same,"inhibition zone, Chrysosporium keratinophilum, A",[1]; [2],25 mm
same,"inhibition zone, Chrysosporium keratinophilum, B",[1]; [3],28 mm
same,"inhibition zone, Chrysosporium keratinophilum, C",[1]; [4],48 mm
same,"inhibition zone, Escherichia coli, A",Escherichia coli; [2],25 mm
same,"inhibition zone, Escherichia coli, B",Escherichia coli; [3],28 mm
same,"inhibition zone, Escherichia coli, C",Escherichia coli; [4],39 mm
same,"inhibition zone, Pseudomonas aeruginosa, A",Pseudomonas aeruginosa; [2],24 mm
same,"inhibition zone, Pseudomonas aeruginosa, B",Pseudomonas aeruginosa; [3],27 mm
same,"inhibition zone, Pseudomonas aeruginosa, C",Pseudomonas aeruginosa; [4],32 mm
same,"inhibition zone, Staphylococcus aureus, A",Staphylococcus aureus; [2],15 mm
same,"inhibition zone, Staphylococcus aureus, B",Staphylococcus aureus; [3],22 mm
same,"inhibition zone, Staphylococcus aureus, C",Staphylococcus aureus; [4],26 mm
same,"inhibition zone, Bacillus Cereus, A",Bacillus cereus; [2],24 mm
same,"inhibition zone, Bacillus Cereus, B",Bacillus cereus; [3],27 mm
same,"inhibition zone, Bacillus Cereus, C",Bacillus cereus; [4],35 mm
